From patent publication US11523995B2, “Compositions and methods for ablating niche cells in testis and other epithelial cells and methods relating thereto” (Duke University, priority 2017, dated 2022)

Key:
donor spermatogenesis = experiment: Cryopreserved donor testicular cell transplantation into BC treated testis; type: in vivo, mouse; settings: cryopreserved (39 days) cells transplanted 7 days after BC; eight weeks after transplantation
Experimental: After dissociation and washing steps, samples were placed in 2.0 ml cryovials (Corning, N.Y., USA) containing 500 μl of cryopreservation medium, (10% FBS+DMEM containing 10% DMSO). Samples were placed in a controlled freezing device (Mr. Frosty™ Freezing Container, Thermo Fisher Scientific) and cooled in a −80° C. freezer overnight. The following morning the cryovials were transferred to Liquid nitrogen for storage. Prior to use, samples were thawed quickly in a bath warmed to 37° C.
(§1) 10-15 μl of approximately 1×10^6/ml isolated Sertoli cells or 1×10^8/ml (testicular cells) were injected through the rete testis into the seminiferous tubules of a host mouse on day 4 or day 7 after ablation treatment. A glass needle was back-loaded with the cell suspension and 0.04% Trypan blue to track the efficiency of the injection.
To test the efficiency of engraftment using cryopreserved donor tissue, we dissociated testis tissue from CAG-EGFP pups, and cryopreserved cells with cryoprotectant including 10% DMSO in liquid nitrogen. Seven days after BC treatment of wild type host mice, cryopreserved (39 days) donor testicular cells were thawed and introduced into the rete testis (FIG. 8). […] In some tubules, cryopreserved Sertoli cells supported host spermatogenesis, and in other tubules, cryopreserved donor Sertoli cells colonized with donor SSCs and supported donor spermatogenesis.

[1] = system: Sertoli cells from canine testis; experiment: Depletion of canine Sertoli cells in vitro (testis fragment culture); type: cell-based; settings: cultured 3 days
Experimental: Fragments of the mouse testis were incubated with 0.02% BC for 10 min. After washing several times with PBS, tissues were placed atop 1.5% agarose blocks (214530; Difco), prepared and placed in 6 well tissue culture plates (353046; Falcon) with ˜500 μl of 10% FBS+DMEM (11995-065; Gibco) to reach halfway up the side of the block. After culture, tissues were washed in PBS and fixed for immunofluorescence. The dog testis tissues were incubated with 0.02% or 0.03% BC for 10 min and cultured with 10% KnockOut Serum Replacement (KSR) (Invitrogen; 10828-028)+DMEM (Yokonishi, T., et al. Methods in Molecular Biology 927: 479-488 (2013)). The culture incubator was supplied with 5% (vol/vol) carbon dioxide in air and maintained at 37° C.
Adult mouse testis and canine testis tissues were fixed in 4% (wt/vol) paraformaldehyde in PBS at 4° C. overnight and cryoembedded in OCT compound (Sakura Finetek). Samples were cut into 14-μm-thick cryosections. Incubation with primary antibodies was performed overnight at 4° C., followed by 2 washes, and incubation with secondary antibodies for 1 h at room temperature. Nuclei were counterstained with Hoechst 33342 dye. Samples were mounted on glass slides and imaged with a confocal laser microscope (Zeiss 780).
We used the same procedure as described for the mouse testis to test whether BC could eliminate Sertoli cells from canine testis. Six to 8 […] canine testis tissues were cut into fragments and incubated with 0.02% or 0.03% BC for 10 min (or PBS as a control), washed, and cultured for 3 days (FIG. 4). At the end of that time, the testis was fixed and stained for immunofluorescence analysis using antibodies against SOX9 and the germ cell marker, MVH (mouse vasa homolog). In control tissue, both Sertoli cells and germ cells were detected in seminiferous tubules. […] In control canine testis, GATA-4 positive PMCs and Leydig cells were detected between tubules.

[2] = system: bladder epithelial cells, urothelium; experiment: BC injection into bladder in vivo; set-up: species or system mouse
Experimental: 2 months old female mice were anesthetized using Avertin or Isoflurane as anesthetic. Using forceps, the top of the urethral orifice was pinched and pulled up without obstructing the urethra at a ˜45° angle. The catheter tubing end was attachded to a 1 mL syringe, and the tip of the tubing rubbed in medicine mineral jelly. The jelly-topped catheter was carefully inserted into the urethra at a ˜45° angle. The syringe was detached from the catheter, and the mouse's stomach was palpated to produce urine. Using another syringe and catheter, the urine that is produced was aspirated, and emptied into other towel. 20 uL of the BC solution (or PBS) was pipetted directly into the catheter using a pipet tip. It was ensured that the pipet tip contacted the catheter, then the cylinder was fully depressed for ˜3 seconds. The liquid was pushed into the bladder by injecting ˜20 uL of air using a syringe. The catheter was removed and the mouse put back into its cage.
We injected a solution of 0.004%, 0.06% BC into the bladder of anesthetized adult female mice to test the effects of the drug on bladder epithelial cells, urothelium. […] However, six days after treatment, urothelium had disappeared from approximately 80% of 0.06% BC treated bladder, some mesenchymal cells were found on straining with antibodies against PDGFRβ and NG2.

host spermatogenesis = experiment: Donor Sertoli cell transplantation into testis 4 days post BC treatment; type: in vivo, mouse; settings: 0.02% BC 4 days before Sox9-ECFP Sertoli cell transplantation; 8 weeks after transplantation
Experimental: On the day of transplantation, FACS analysis was used to isolate donor Sertoli cells. Testes of Sox9-CFP mouse pups were dissected. Testicular cells were enzymatically dissociated using 1 mg/ml collagenase type IV for 15 minutes followed by incubation in 0.25% trypsin and 1 mM EDTA for 10 min at 37° C. The reaction was stopped by addition of serum and cells were washed twice. The cell suspension was filtered through a 40 μm nylon mesh and resuspended in 10% FBS+DMEM.
as §1
To determine whether donor Sertoli cells can efficiently engraft drug-depleted cords, we transplanted Sertoli cells from 6.5-10.5 dpp Sox9-ECFP mouse pups. The host mouse was prepared by injection of the 0.02% BC solution 4 days prior to transplantation. Cells from a neonatal Sox9-ECFP donor testis were dissociated by enzymatic treatment, Sertoli cells were isolated by FACS, and injected into host seminiferous tubules through the rete testis (FIG. 6). […] Full spermatogenesis was detected 8 weeks after transplantation in 2 of 4 engrafted testes.

inflammation in bladder ([2]; 0.004% BC): did not cause inflammation
macrophage invasion in bladder ([2]; 0.03% BC (so in the source)): Macrophage invasion were observed
Substance: benzalkonium chloride [BC]
host testes colonized by cryopreserved Sertoli cells and SSCs (donor spermatogenesis): 3/3
hosts with full spermatogenesis from donor cells (donor spermatogenesis): 2
Sertoli cell depletion (SOX9) ([1]; 0.02% BC 10 min): Sertoli cells were depleted, particularly from the peripheral regions of the tissue
SSC survival in Sertoli-depleted seminiferous tubules ([1]; 0.03% BC 10 min): some SSCs survived
Sertoli cell depletion (SOX9) ([1]; 0.03% BC 10 min): all Sertoli cells were absent
effect on PMCs, SSCs and Leydig cells ([1]; 0.03% BC 10 min): caused some PMC depletion, and reduced the number of SSCs and Leydig cells
urothelium depletion ([2]; 0.004% BC, day 6): urothelium depletion was not detected
urothelium detachment in the lumen of the bladder ([2]; 0.06% BC, day 6): urothelium detachment was observed
part of treated bladder from which urothelium had disappeared ([2]; 0.06% BC, six days after treatment): approximately 80%
engrafted testes with full spermatogenesis (host spermatogenesis): 2 of 4
